Literature values, collected in patent EP3297603B1, “CINEOLE-CONTAINING AQUEOUS COMPOSITION FOR NASAL APPLICATION” (Maria Clementine Martin Klosterfrau Vertriebsgesellschaft …, priority 2015, dated 2017).

Conditions: general property, reference to RÖMPP Chemielexikon

## CC12CCC(CC1)C(C)(C)O2 [1,8-Cineol, 1,3,3-Trimethyl-2-oxabicyclo[2.2.2]octan]
  Löslichkeit in Wasser: in Wasser unlöslich
